Assay type in all cases: cell-based, human
The test system of assay [1] is SW579 cells of thyroid cancer. The experiment in a line: cells. The settings on record: Homo sapiens, dose 10 μg/ml, 48 h, positive control, read-out: proliferation inhibition rate. On the procedure:
(§1) After SCC4 cells of head and neck cancer, SW579 cells of thyroid cancer, A549 cells of lung cancer, TE13 cells of esophageal squamous cell carcinoma, MGC803 cells of stomach cancer, MDA-MB-231 cells of breast cancer, UOK262 cells of kidney cancer and A431 cells of skin cancer of human were cultured in a 37 DEG C. 5% CO2 incubator until the density was 90%, they were digested and collected by trypsin, the cells were re-suspended in a culture solution and counted under a microscope, the concentration of the cells was adjusted to 3.0×10^4 cells/mL, and the cell suspension was inoculated to 96-well plates, 100 μL per well, and cultured in a 37 DEG C. 5% CO2 incubator overnight. After the cells were completely adherent, different doses of micropeptides HMMW I to IX were added as drug groups, taxol was used as a positive control group, and the culture solution without any drug was used as a blank control group. They were diluted with the culture solution till predetermined concentrations. The diluted solutions were added to 96-well plates, respectively, 100 μL per well, and incubated in a 37 DEG C. 5% CO2 incubator for 48 h. 20 μL of 5 mg/mL MTT was added to each well of the 96-well plates, and the culture was continued for 4 h. The culture medium was sucked away, and 100 μL of DMSO was added to each well for dissolution. Absorbance was detected by ELIASA at detection wavelength 570 nm and reference wavelength 630 nm, and proliferation inhibition (PI) was calculated according to Formula PI (%)=1−drug group/negative group. The test was independently repeated three times. The results obtained from the test were expressed with mean±SD and statistical t test was done. *P<0.05 means significant difference, and **P<0.01 means very significant difference.

Assay [2] has as its system MDA-MB-231 cells of breast cancer. The experiment in a line: cells. The following applies: Homo sapiens, dose 10 μg/ml, 48 h, positive control, read-out: proliferation inhibition rate. How it is done: as §1
Assay [3] deals with TE13 cells of esophageal squamous cell carcinoma. The experiment in a line: cells. The settings on record: Homo sapiens, dose 10 μg/ml, 48 h, positive control, read-out: proliferation inhibition rate. On the procedure:
as §1

The test system of assay [4] is A431 cells of skin cancer. In words: cells. The settings on record: Homo sapiens, A-431, dose 10 μg/ml, 48 h, positive control, read-out: proliferation inhibition rate. How it is done: as §1
The subject of assay [5] is MGC803 cells of stomach cancer. In words: cells. The settings on record: Homo sapiens, MGC-803, dose 10 μg/ml, 48 h, positive control, read-out: proliferation inhibition rate. On the procedure: as §1
The subject of assay [6] is A549 cells of lung cancer. The experiment in a line: cells. The following applies: Homo sapiens, dose 10 μg/ml, 48 h, positive control, read-out: proliferation inhibition rate. How it is done: as §1
In assay [7] the test system is UOK262 cells of kidney cancer. In words: cells. The settings on record: Homo sapiens, UOK 262, dose 10 μg/ml, 48 h, positive control, read-out: proliferation inhibition rate. How it is done:
as §1

Assay [8] has as its system SCC4 cells of head and neck cancer. The experiment in a line: cells. The following applies: Homo sapiens, SCC-4, dose 10 μg/ml, 48 h, positive control, read-out: proliferation inhibition rate. On the procedure:
as §1

Assay [9] concerns SW579 cells of thyroid cancer. In words: Matrigel transwell invasion test. The settings on record: dose 10 (unit not given), 24 h. How it is done: (§2) Dilute 10 mg/mL Matrigel with culture medium at 1:3, spread it on membranes of transwell cells and dry it in the air at room temperature. Use trypsin to digest and collect SCC4 cells of head and neck cancer, SW579 cells of thyroid cancer, A549 cells of lung cancer, TE13 cells of esophageal squamous cell carcinoma, MGC803 cells of stomach cancer, MDA-MB-231 cells of breast cancer, UOK262 cells of kidney cancer, and A431 cells of skin cancer of human, which were cultured to the logarithmic phase, wash with PBS twice and re-suspend with a blank culture medium. Adjust cell concentration to 1×10^5 cells/mL. Inoculate the cells to transwell cells, 100 μL per well, and meanwhile add micropeptides HMMW I to IX at different doses to every cell. Add 0.6 mL of complete medium containing 10% FBS to the transwell cells to stimulate cell invasion, and culture in 5% CO2 at 37 DEG C. for 24 h. Discard the medium in the wells, fix with 90% alcohol at room temperature for 30 min, stain with 0.1% crystal violet at room temperature for 10 min, rinse with clear water, gently wipe off the non-invaded cells in the upper layer with a cotton swab, observe under a microscope and select four fields of view to take pictures and count. Calculate the invasion inhibition rate (IIR) of the cells according to the following formula:
(§3) [formula] where Ntest is the number of invaded cells in the test groups (the groups at a dose of 1, 4 or 16 μM in the table), Ncontrol is the number of invaded cells in the blank control groups (the groups at a dose of 0 μM in the table). The test was repeated independently three times. Mean±SD was calculated based on the test results. Statistical t test was done. Value P was used to express statistical difference. The statistical significance of the results is a method for estimating how true the results are (the totality can be represented), *P<0.05 means significant difference, and **P<0.01 means very significant difference.

Assay [10] concerns MDA-MB-231 cells of breast cancer. The experiment in a line: Matrigel transwell invasion test. The following applies: dose 10 (unit not given), 24 h. How it is done: as §2, §3
Assay [11] has as its system TE13 cells of esophageal squamous cell carcinoma. The experiment in a line: Matrigel transwell invasion test. The following applies: dose 10 (unit not given), 24 h. On the procedure:
as §2, §3

Assay [12] concerns A431 cells of skin cancer. In words: Matrigel transwell invasion test. The following applies: dose 10 (unit not given), 24 h. How it is done:
as §2, §3

Assay [13] concerns MGC803 cells of stomach cancer. In words: Matrigel transwell invasion test. The settings on record: dose 10 (unit not given), 24 h. On the procedure: as §2, §3
Assay [14] deals with A549 cells of lung cancer. In words: Matrigel transwell invasion test. The following applies: dose 10 (unit not given), 24 h. How it is done:
as §2, §3

In assay [15] the test system is UOK262 cells of kidney cancer. The experiment in a line: Matrigel transwell invasion test. The following applies: dose 10 (unit not given), 24 h. On the procedure: as §2, §3
For assay [16], the system named is SCC4 cells of head and neck cancer. In words: Matrigel transwell invasion test. The following applies: dose 10 (unit not given), 24 h. On the procedure: as §2, §3
Assay [17] concerns SW579 cells of thyroid cancer. The experiment in a line: transwell migration test. The settings on record: dose 10 (μM), 24 h. How it is done:
(§4) Inoculate SCC4 cells of head and neck cancer, SW579 cells of thyroid cancer, A549 cells of lung cancer, TE13 cells of esophageal squamous cell carcinoma, MGC803 cells of stomach cancer, MDA-MB-231 cells of breast cancer, UOK262 cells of kidney cancer, and A431 cells of skin cancer of human to transwell cells, 100 μL per well, and meanwhile add micropeptides HMMW I to IX at different doses to every cell. Add 0.6 mL of complete medium containing 10% FBS to the transwell cells to stimulate cell migration, and culture in 5% CO2 at 37 DEG C. for 24 h. Discard the medium in the wells, fix with 90% alcohol at room temperature for 30 min, stain with 0.1% crystal violet at room temperature for 10 min, rinse with clear water, gently wipe off the non-migrated cells in the upper layer with a cotton swab, observe under a microscope and select four fields of view to take pictures and count. Calculate the migration inhibition rate (MIR) of the cells according to the following formula: […]
(§5) The test was repeated independently three times. Mean±SD was calculated based on the test results. Statistical t test was done. Here, “the test was repeated independently three times” means that every dose of any type of cells was tested repeatedly three times, and then the above formula was used to calculate the number of migrated cells (Mean±SD). Value P was used to express statistical difference. The statistical significance of the results is a method for estimating how true the results are (the totality can be represented), *P<0.05 means significant difference, and **P<0.01 means very significant difference.

The test system of assay [18] is MDA-MB-231 cells of breast cancer. The experiment in a line: transwell migration test. The settings on record: dose 10 (μM), 24 h. On the procedure: as §4, §5
Assay [19] deals with TE13 cells of esophageal squamous cell carcinoma. The experiment in a line: transwell migration test. The settings on record: dose 10 (μM), 24 h. On the procedure: as §4, §5
Assay [20] deals with A431 cells of skin cancer. The experiment in a line: transwell migration test. The settings on record: dose 10 (μM), 24 h. On the procedure: as §4, §5
The subject of assay [21] is MGC803 cells of stomach cancer. In words: transwell migration test. The settings on record: 24 h. How it is done: as §4, §5
Assay [22] has as its system A549 cells of lung cancer. In words: transwell migration test. The following applies: dose 10 (μM), 24 h. On the procedure:
as §4, §5

Assay [23] deals with UOK262 cells of kidney cancer. In words: transwell migration test. The settings on record: dose 10 (μM), 24 h. How it is done: as §4, §5
The test system of assay [24] is SCC4 cells of head and neck cancer. The experiment in a line: transwell migration test. The settings on record: dose 10 (μM), 24 h. On the procedure: as §4, §5

In patent publication US12565522B2, “Micropeptide HMMW and application thereof” (NANJING ANJI BIOTECHNOLOGY CO., LTD., priority 2019, dated 2026) one finds inhibition, invasion inhibition rate and migration inhibition rate data, which are given here for two compounds.

`CC(=O)O[C@H]1C(=O)[C@@]2(C)[C@H]([C@H](OC(=O)c3ccccc3)[C@]3(O)C[C@H](OC(=O)[C@H](O)[C@@H](NC(=O)c4ccccc4)c4ccccc4)C(C)=C1C3(C)C)[C@]1(OC(C)=O)CO[C@@H]1C[C@@H]2O` [Taxol, taxol, reference compound]: the inhibition at 10 µg/mL in assay [1] was 82.8%; in assay [2], 83.9%; in assay [3], 79.2%; in assay [4] it was 85.2%; in assay [5] it was 81.3%; in assay [6] it was 84.3%. Besides, the inhibition at 10 µg/mL in [7] was determined as 83.9%; in [8] it was 87%.
As for “Avastin: comparison group in the migration and invasion tables; not described in the text [reference compound]”, the invasion inhibition rate in [9] is 67.40%; in [10] it was 70.03%; in assay [11], 69.31%; in assay [12], 70.39%; in assay [13], 63.48%; in assay [14] it was 61.35%. Moreover, the values for the invasion inhibition rate in [15] and in assay [16] were 72.16% and 68.41%, respectively. The migration inhibition rate is given as 59.81% in assay [17]; 62.19% in assay [18]; 58.19% in assay [19]; 64.63% in assay [20]; 71.25% in [21]; 66.21% in assay [22]. The migration inhibition rate in [23] worked out at 61.39%; in [24], 68.64%.
